“Also recorded” adds a separate entry of the source. Like-named read-outs stand apart in the source and are kept apart here.

Series [1] has as its target BRD4 BD1 (Homo sapiens, UniProt O60885). In words: FITC-JQ1 displacement fluorescence polarization competitive binding assay. The conditions noted are these: read-out: IC50 from competitive binding assay.
Series [2] concerns the target T1, BRD4BD2 (Homo sapiens, UniProt O60885). Nature of the series: TAMRA-JQ1 displacement fluorescence polarization assay. In kind it is binding. (In general: In fluorescence polarisation assays a small probe gives low polarisation when free and higher when bound to something large.)
In series [3] the target is T2, BRD4BD1 L94V (Homo sapiens, UniProt O60885, L94V). Described as above. The format is binding. To be noted: 400 nM protein, 10 nM TAMRA-JQ1; N=1.
Series [4] addresses BRD4BD2-EGFP (Homo sapiens, UniProt O60885). Nature of the series: Cellular degradation EGFP/mCherry reporter assay (Acumen) in Flp293T cells. To be noted: highest tested concentration of 10 μM.
Series [5] concerns the target T1, BRD4BD2. Nature of the series: FITC-JQ1 displacement fluorescence polarization competitive binding assay.
Series [6] deals with T2, BRD4BD1 L94V. Described as above.
The test system of series [7] is MOLT4 cells. Nature of the series: Whole proteome TMT LC-MS3 mass spectrometry profiling. In kind it is cell-based, human. The conditions noted are these: 1 μM compound; for native off target degradation in whole proteome mass spectrometry: ~7,800 quantified proteins incl. BET family. How it is done: Lysis buffer (8 M Urea, 50 mM NaCl, 50 mM 4-(2hydroxyethyl)-1-piperazineethanesulfonic acid (EPPS) pH 8.5, Protease and Phosphatase inhibitors from Roche®) were added to the cell pellets and homogenized by 20 passes through a 21 gauge (1.25 in. long) needle to achieve a cell lysate with a protein concentration between 1-4 mg mL^−1. A micro-BCA assay (Pierce™) was used to determine the final protein concentration in the cell lysate. 200 μg of protein for each sample were reduced and alkylated as previously described in Donovan et al., Elife 7: e38430 (2018).
Proteins were precipitated using methanol/chloroform. In brief, four volumes of methanol were added to the cell lysate, followed by one volume of chloroform, and finally three volumes of water. The mixture was vortexed and centrifuged to separate the chloroform phase from the aqueous phase. The precipitated protein was washed with three volumes of methanol, centrifuged and the resulting washed precipitated protein was allowed to air dry. Precipitated protein was resuspended in 4 M Urea, 50 mM 2-[4-(2-hydroxyethyl)piperazin-1-yl]ethanesulfonic acid (HEPES) pH 7.4, followed by dilution to 1 M urea with the addition of 200 mM EPPS, pH 8. Proteins were first digested with LysC (1:50; enzyme:protein) for 12 hours at room temperature. The LysC digestion was diluted to 0.5 M Urea with 200 mM EPPS pH 8 followed by digestion with trypsin (1:50; enzyme:protein) for 6 hours at 37° C. Tandem mass tag (TMT) reagents (Thermo Fisher Scientific) were dissolved in anhydrous acetonitrile (ACN) according to manufacturer's instructions. Anhydrous ACN was added to each peptide sample to a final concentration of 30% v/v, and labeling was induced with the addition of TMT reagent to each sample at a ratio of 1:4 peptide:TMT label. The 10-plex labeling reactions were performed for 1.5 hours at room temperature and the reaction quenched by the addition of hydroxylamine to a final concentration of 0.3% for 15 minutes at room temperature.
The sample channels were combined at a 1:1:1:1:1:1:1:1:1:1:1 ratio, desalted using C18 solid phase extraction cartridges (Waters®) and analyzed by LC-MS for channel ratio comparison. Samples were then combined using the adjusted volumes determined in the channel ratio analysis and dried down in a speed vacuum. The combined sample was then resuspended in 1% formic acid, and acidified (pH 2-3) before being subjected to desalting with C18 SPE (Sep-Pak®, Waters®). Samples were then offline fractionated into 96 fractions by high pH reverse-phase HPLC (Agilent LC1260) through an aeris peptide xb-c18 column (Phenomenex®) with mobile phase A containing 5% acetonitrile and 10 mM NH4HCO3 in LC-MS grade H2O, and mobile phase B containing 90% acetonitrile and 10 mM NH4HCO3 in LC-MS grade H2O (both pH 8.0). […]

The conditions of series [8]: male, C57BL/6, mouse, in vivo, iv, 2 mg/kg.
The conditions of series [9]: in vivo, ip, 10 mg/kg; for AUCINF / AUClast / F / MRTINF / MRTlast: male, C57BL/6, mouse.
The target of series [10] is BRD4BD1-EGFP (Homo sapiens, UniProt O60885). In words: Cellular degradation EGFP/mCherry reporter assay (Acumen) in Flp293T cells. In general terms: A reporter such as luciferase makes a cellular process visible.
The mark [11] stands for this setting: IC50, wild type BRD4BD2, TAMRA-JQ1 assay.
The mark [12] stands for this setting: FITC-JQ1 assay, read-out: IC50, wild type BRD4BD2.
Setting [13] is: read-out: IC50 from competitive binding assay.
Setting [14] is: 50 nM protein, 10 nM TAMRA-JQ1, N=1, read-out: IC50.

For `COc1ccc2c(c1)C(c1ccc(Cl)cc1)=N[C@@H]([C@@H](C)C(=O)NCCCCCCCNC(=O)COc1cccc3c1C(=O)N(C1CCC(=O)NC1=O)C3=O)c1nnc(C)n1-2` (stereo partly drawn) [Compound 2, (2R)-2-((4S)-6-(4-chlorophenyl)-8-methoxy-1-methyl-4H-benzo[f][1,2,4]triazolo[4,3-a][1,4]diazepin-4-yl)-N-(7-(2-((2-(2,6-dioxopiperidin-3-yl)-1,3-dioxoisoindolin-4-yl)oxy)acetamido)heptyl)propanamide], the IC50 in series [1] came to 525 ± 39 nM; in series [2] (setting [11]) it was 6400 nM; in [3] it was 109 nM; in series [5] (setting [12]), 2000 nM; in series [5] (setting [13]), 1990 ± 86 nM; in series [6] it was 98 ± 6 nM. Further, in series [4], the “degradation of BRD4BD2” value is listed as “approximately 10%”.
On to `COc1ccc2c(c1)C(c1ccc(Cl)cc1)=N[C@@H]([C@@H](C)C(=O)NCCCCCNC(=O)COc1cccc3c1C(=O)N(C1CCC(=O)NC1=O)C3=O)c1nnc(C)n1-2` (stereo partly drawn) [Compound 1, (2R)-2-((4S)-6-(4-chlorophenyl)-8-methoxy-1-methyl-4H-benzo[f][1,2,4]triazolo [4,3-a][1,4]diazepin-4-yl)-N-(5-(2-((2-(2,6-dioxopiperidin-3-yl)-1,3-dioxoisoindolin-4-yl)oxy)acetamido)pentyl)propanamide], for which the IC50 in [1] was 1260 ± 60 nM. Also, in series [7], the “LIMK2 expression in response to treatment” value is reported as “unchanged” and the “native off target degradation in whole proteome mass spectrometry” value is “did not degrade any native BET bromodomains, or any other unrelated off targets; also recorded: no native off target degradation was detected”. Further, in series [2] (setting [14]), the IC50 was determined as 7870 nM. In [8], this compound displayed an AUCINF of 1.88 µM·h, an AUClast of 1.88 µM·h, a C0 of 8.4 µM and an MRTINF of 17.3 min. Also, in series [8], the MRTlast was 17 min. Moreover, the IC50 in series [3] amounted to 125 nM. Besides, the IC50 in series [5] (setting [13]) was determined as 3500 ± 110 nM. In [9], the AUCINF was 7.21 µM·h, the AUClast was determined as 7.31 µM·h, the F is 77.7% and the MRTINF turned out to be 56.6 min. The compound further showed an MRTlast in series [9] of 56.2 min. In series [9] (mouse), the “time plasma concentration maintained above DC50,6h of 10 nM” value is recorded as “approximately 6 h”. In addition, the IC50 in series [6] came to 132 ± 10 nM.
For the compound `COc1ccc2c(c1)C(c1ccc(Cl)cc1)=N[C@@H]([C@@H](C)C(=O)NCCOCCOCCNC(=O)COc1cccc3c1C(=O)N(C1CCC(=O)NC1=O)C3=O)c1nnc(C)n1-2` (stereo partly drawn) [Compound 5, (2R)-2-((4S)-6-(4-chlorophenyl)-8-methoxy-1-methyl-4H-benzo[f][1,2,4]triazolo [4,3-α][1,4]diazepin-4-yl)-N-(2-(2-(2-(2-((2-(2,6-dioxopiperidin-3-yl)-1,3-dioxoisoindolin-4-yl)oxy)acetamido)ethoxy)ethoxy)ethyl) propanamide], in [10] (1 μM concentration), the “degradation of BRD4BD1 at 1 μM” value is “no degradation”. In addition, the IC50 in series [1] is 2080 ± 140 nM. In addition, in series [7], the “LIMK2 expression in response to treatment” value is given as “upregulated” and the “native off target degradation in whole proteome mass spectrometry” value is “did not degrade any native BET bromodomains, or any other unrelated off targets; also recorded: no native off target degradation was detected”. Besides, the IC50 in series [2] (setting [14]) is 3890 nM. Moreover, in series [8], the AUCINF was determined as 1.57 µM·h, the AUClast came to 1.57 µM·h, the C0 is 9.59 µM and the MRTINF was 12.6 min. The MRTlast in [8] was 12.5 min. The compound further showed an IC50 in series [3] of 183 nM. Further, the IC50 in series [5] (setting [13]) was determined as 3040 ± 89 nM. Moreover, in series [9], the AUCINF came to 4.30 µM·h, the AUClast stood at 4.30 µM·h, the F is given as 54.8% and the MRTINF came to 41.4 min. The compound also registered an MRTlast in [9] of 41.3 min. The compound further came in with an IC50 in series [6] of 168 ± 18 nM.
Regarding `COc1ccc2c(c1)C(c1ccc(Cl)cc1)=N[C@@H]([C@@H](C)C(=O)NCCCCCCCCCNC(=O)COc1cccc3c1C(=O)N(C1CCC(=O)NC1=O)C3=O)c1nnc(C)n1-2` (stereo partly drawn) [Compound 3, (2R)-2-((4S)-6-(4-chlorophenyl)-8-methoxy-1-methyl-4H-benzo[f][1,2,4]triazolo[4,3-α][1,4]diazepin-4-yl)-N-(9-(2-((2-(2,6-dioxopiperidin-3-yl)-1,3-dioxoisoindolin-4-yl)oxy)acetamido)nonyl)propanamide], the DC50 in series [10] (read-out: DC50,6h, BRD4BD1 reporter cell line, 6-hour incubation, ± S.E., N=3) worked out at 1840 nM. Also, the IC50 was 260 ± 32 nM in series [1]; 6890 nM in series [2] (setting [14]); 96.4 nM in series [3]; 2240 ± 200 nM in [5] (setting [13]); 63 ± 4 nM in [6].
Regarding `COc1ccc2c(c1)C(c1ccc(Cl)cc1)=N[C@@H]([C@@H](C)C(=O)NCCOCCNC(=O)COc1cccc3c1C(=O)N(C1CCC(=O)NC1=O)C3=O)c1nnc(C)n1-2` (stereo partly drawn) [Compound 4, (2R)-2-((4S)-6-(4-chlorophenyl)-8-methoxy-1-methyl-4H-benzo[f][1,2,4]triazolo[4,3-α][1,4]diazepin-4-yl)-N-(2-(2-(2-((2-(2,6-dioxopiperidin-3-yl)-1,3-dioxoisoindolin-4-yl)oxy)acetamido)ethoxy)ethyl)propanamide], the IC50 was determined as 3130 ± 160 nM in [1]; 30600 nM in [2] (setting [14]); 30000 nM in series [2] (setting [11]); 207 nM in series [3]; 7000 nM in series [5] (setting [12]); 6970 ± 300 nM in [5] (setting [13]). Further, in series [6], the IC50 is 218 ± 19 nM.

In general, IC50 refers to the concentration that inhibits the measured activity by half. Usually DC50 stands for the midpoint of the concentration-degradation curve.

The values are drawn from patent publication US20230234957A1, “PROTEIN TAG TO INDUCE LIGAND DEPENDENT DEGRADATION OF PROTEIN/PROTEIN-FUSIONS” (DANA-FARBER CANCER INSTITUTE, INC., priority 2020, published 2023).
